Assay results taken from PubChem BioAssay (NCI).
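Growth conditions: 96-well plates. Treatment: test compound, 48 hours, 5 concentrations. Analysis: linear interpolation between bracketing concentrations; unreached endpoints set to highest concentration. TGI marks complete inhibition of growth.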

Experiments:
Assay in all cases: inhibition of tumour cell growth, NCI panel, 48 h
[1] = test system: ACHN renal
[2] = test system: NCI-H522 lung
[3] = test system: HOP-62 NSCLC
[4] = test system: NCI-H226 lung
[5] = test system: SN12C renal
[6] = test system: COLO 205 colon
[7] = test system: OVCAR-5 ovarian
[8] = test system: HOP-92 NSCLC
[9] = test system: SNB-19 CNS
[10] = test system: SR leukemia

## [N-]=[N+]=C1CNC(=O)NC1=O
[1]
  TGI: > 100 µM
[2]
  TGI: > 100 µM
[3]
  TGI: > 100 µM
[4]
  TGI: > 100 µM
[5]
  TGI: > 100 µM
[6]
  TGI: > 100 µM
[7]
  TGI: > 100 µM
[8]
  TGI: > 100 µM
[9]
  TGI: > 100 µM

## c1ccc(C(=NNc2nc3ccccc3[nH]2)c2ccccn2)nc1
[10]
  TGI: 0.271 µM
[1]
  TGI: 0.698 µM
[2]
  TGI: 0.089 µM
[3]
  TGI: 2.62 µM
[4]
  TGI: 0.448 µM
[6]
  TGI: 16.1 µM
[7]
  TGI: 5.18 µM
[8]
  TGI: 0.182 µM
[9]
  TGI: > 100 µM

## CN(C)CCCNC(=O)c1cc(NC(=O)c2cc(NC(=O)c3cc(NC(=O)CCCn4ccc(CO)c4CO)cn3C)cn2C)cn1C
[10]
  TGI: > 100 µM
[1]
  TGI: > 100 µM
[2]
  TGI: 8.38 µM
[4]
  TGI: 13.9 µM
[5]
  TGI: > 100 µM
[6]
  TGI: 53.1 µM
[7]
  TGI: > 100 µM
[8]
  TGI: > 100 µM
[9]
  TGI: > 100 µM

## CCC(=N\NC(N)=S)/C(C)=N/O
[1]
  TGI: > 100 µM
[3]
  TGI: > 100 µM
[4]
  TGI: > 100 µM
[5]
  TGI: > 100 µM
[6]
  TGI: > 100 µM
[7]
  TGI: > 100 µM
[8]
  TGI: > 100 µM
[9]
  TGI: > 100 µM

## O=C1CCC2=C(CCC2)N1CCc1ccc2c(c1)OCO2
[10]
  TGI: > 100 µM
[1]
  TGI: > 100 µM
[2]
  TGI: > 100 µM
[3]
  TGI: > 100 µM
[4]
  TGI: > 100 µM
[5]
  TGI: > 100 µM
[6]
  TGI: > 100 µM
[7]
  TGI: > 100 µM
[9]
  TGI: > 100 µM

## O=C1Nc2ccccc2NC1C1OC(c2ccccc2)=CC1=O (centres undefined)
[10]
  TGI: > 100 µM
[1]
  TGI: > 100 µM
[4]
  TGI: > 100 µM
[6]
  TGI: > 100 µM
[7]
  TGI: > 100 µM
[8]
  TGI: > 100 µM
[9]
  TGI: > 100 µM

## CCCCCCC(CCl)c1sc(-c2csc(CCNC(=O)OC(C)(C)C)n2)nc1C(=O)OC (centres undefined)
[10]
  TGI: > 100 µM
[1]
  TGI: 81.6 µM
[2]
  TGI: > 100 µM
[3]
  TGI: > 100 µM
[5]
  TGI: 38.9 µM
[6]
  TGI: > 100 µM
[7]
  TGI: > 100 µM
[8]
  TGI: 69.7 µM
[9]
  TGI: > 100 µM

## CC(C)(C)OC(=O)NC(CCCCNC(=O)OCc1ccccc1)C(=O)NC(CCCCNC(=O)OCc1ccccc1)C(=O)ON1C(=O)CCC1=O (centres undefined)
[10]
  TGI: > 100 µM
[3]
  TGI: > 100 µM
[4]
  TGI: > 100 µM
[5]
  TGI: > 100 µM
[6]
  TGI: > 100 µM
[7]
  TGI: > 100 µM
[8]
  TGI: > 100 µM
[9]
  TGI: > 100 µM

## O=C([C@H](O)[C@@H](O)c1ccc(Br)cc1)C12CC3CC(CC(C3)C1)C2
[10]
  TGI: > 100 µM
[1]
  TGI: > 54.1 µM
[2]
  TGI: > 57.7 µM
[3]
  TGI: 26.6 µM
[4]
  TGI: > 85.7 µM
[5]
  TGI: > 65.8 µM
[6]
  TGI: > 40.2 µM
[7]
  TGI: > 72.9 µM
[9]
  TGI: > 90.4 µM

## C[C@]12CCC(=O)C=C1CC[C@@H]1[C@@H]2C(=O)C[C@@]2(C)[C@H]1CC[C@]2(O)C(=O)CO
[10]
  TGI: > 100 µM
[1]
  TGI: > 100 µM
[2]
  TGI: > 100 µM
[4]
  TGI: > 100 µM
[5]
  TGI: > 100 µM
[6]
  TGI: > 100 µM
[8]
  TGI: > 100 µM
[9]
  TGI: > 100 µM

## Cc1cc(NC2=NCCO2)c2c(c1C)CCCC2
[10]
  TGI: 75.9 µM
[1]
  TGI: > 100 µM
[3]
  TGI: 32 µM
[4]
  TGI: 12.4 µM
[5]
  TGI: 66.3 µM
[6]
  TGI: 46.6 µM
[7]
  TGI: 57.1 µM
[8]
  TGI: 13.6 µM
[9]
  TGI: 38.8 µM
